Experimental data: US20230382926A1, “COMPOUNDS AND USES THEREOF” (The University of The West Indies, priority 2022, published 2023)

Legend:
[1] = test system: MRSA; experiment: Rescue concentration of substituted phenyl azaindole derivatives; format: cell-based, Staphylococcus aureus; conditions: Amoxicillin fixed at 2 μg/mL
Experimental: (§1) The antibiotic adjuvant activity of the SPazaBIMs were evaluated in combination with representative antibiotics (representing 13 antibiotic classes) against the 19 pathogens strains listed in Table 3. To assess the adjuvant properties of the SP-azaBIM molecules, a modified checkerboard minimum inhibitory concentration assay was used. A fixed concentration of the respective antibiotic (susceptible breakpoint concentration) was mixed with a twofold dilution series of the test SP-azaBIM (FIG. 1). This was to determine the concentration of SP-azaBIM needed potentiate the antibiotic at a clinically susceptible breakpoint concentration. Antibiotic susceptible breakpoint concentrations for the respective bacteria were determined using Clinical Laboratory Standards Institute (CLSI) criteria M100 ED31.
(§2) In this study, only those antibiotics to which the bacterial was classed as resistant were included in the adjuvant assays. In this assay we recorded the rescue concentration of the SP-BIM for a respective antibiotic. The rescue concentration was defined as the concentration of the adjuvant that reduces the minimum inhibitory concentration (MIC) of an antibiotic to the susceptibility breakpoint.
(§3) Immediately prior to testing, the respective antibiotic and SP-azaBIM was dissolved in sterile deionised water at 20× the required test concentration. Each microtiter well was then inoculated with 180 μl of bacterial inoculum of 10^6 CFU/ml in ca-MHB, and 10 μl each if the antibiotic and SP-azaBIM was added to the plates. These plates were then incubated at 35° C. for 24 h under aerobic conditions. A similar method was followed for the fastidious pathogens except that they were cultured in ca-MHB with 5% sheep blood and 5% CO2.
(§4) Bacterial growth was visually inspected after the incubation period and the rescue concentration of the test SP-azaBIM was determined as the lowest concentration of the compound needed to reduce bacterial growth by 99.99% at the susceptible breakpoint concentration of the antibiotic. For example, CLSI states that Pseudomonas aeruginosa is susceptible to the Imipenem if the MIC is ≤2 μg mL^−1. If the bacteria can tolerate this concentration in vitro, then the bacteria has an intermediate or absolute resistance toward that antibiotic. The goal was to determine the concentration of SP-azaBIM needed to cause P. aeruginosa death at 2 μg mL^−1 of Imipenem therefore restoring susceptibility of the bacteria to toward the antibiotic.
(§5) Phenyl azaindole compounds are also tested for their adjuvant activities and the method is shown in Example 39.

[2] = test system: P. aeruginosa; experiment: as above; format: cell-based; conditions: Imipenem fixed at 1 μg/mL
Experimental: as §1, §2, §3
Bacterial growth was visually inspected after the incubation period and the rescue concentration of the test SP-azaBIM was determined as the lowest concentration of the compound needed to reduce bacterial growth by 99.99% at the susceptible breakpoint concentration of the antibiotic. […] If the bacteria can tolerate this concentration in vitro, then the bacteria has an intermediate or absolute resistance toward that antibiotic. […]
as §5

[3] = test system: K. pneumoniae; experiment: as above; format: cell-based; conditions: for Rescue concentration, K. pneumoniae Ciprofloxacin (1 μg/mL): Ciprofloxacin fixed at 1 μg/mL; for Rescue concentration, K. pneumoniae Imipenem (1 μg/mL): Imipenem fixed at 1 μg/mL
Experimental: as §1, §2, §3, §4, §5

[4] = test system: Methicillin resistant Staphylococcus aureus; experiment: Broth microdilution minimum inhibitory concentration; format: cell-based; conditions: compound alone
Experimental: (§6) Antibacterial activity of the synthesized compounds was determined following guidelines established by the Clinical and Laboratory Standards Institute M07-A10 (CLSI 2015), following the broth microdilution method. Briefly, the test articles were dissolved in 100% DMSO, diluted by 2-fold serial titrations in the same vehicle (100% DMSO), for a total of 11 concentrations. A 4 μL aliquot of each dilution was then added to 196 μL of broth medium seeded with the bacterial suspension in wells of a 96 well plate (bacterial count: 2×10^5 to 8×10^5 colony forming units/mL final). The highest test substance concentration was 1028 μg/mL, and the final vehicle concentration was 2 percent. Following incubation, the test plate was visually examined, and each well was scored for growth or complete inhibition of growth. The minimum inhibitory concentration was determined as the lowest concentration were no growth of the bacterial was observed. Each test article was assayed in duplicate.

[5] = test system: Vancomycin resistant Enterococcus faecalis; experiment: as above; format: cell-based; conditions: compound alone
Experimental: as §6

[6] = test system: Carbapenem resistant Acinetobacter baumannii; experiment: as above; format: cell-based; conditions: compound alone
Experimental: as §6

[7] = test system: Multidrug resistant Pseudomonas aeruginosa; experiment: as above; format: cell-based; conditions: compound alone
Experimental: as §6

[8] = test system: Carbapenem resistant Klebsiella pneumoniae; experiment: as above; format: cell-based; conditions: compound alone
Experimental: as §6

Compound | Rescue concentration, MRSA Amoxicillin (2 μg/mL) [1] [µg/mL] | Rescue concentration, P. aeruginosa Imipenem (1 μg/mL) [2] [µg/mL] | Rescue concentration, K. pneumoniae Ciprofloxacin (1 μg/mL) [3] [µg/mL] | Rescue concentration, K. pneumoniae Imipenem (1 μg/mL) [3] [µg/mL] | MIC [4] [µg/mL] | MIC [5] [µg/mL] | MIC [6] [µg/mL] | MIC [7] [µg/mL] | MIC [8] [µg/mL]
OC(c1ccc(Br)cc1)c1c[nH]c2cnccc12 (stereo not drawn) [Compound 4Br-6aza-OH, (4-bromophenyl)(1H-pyrrolo[2,3-c]pyridin-3-yl)methanol] | 32 | 16 | 4 | 8 | < 1020 | < 1020 | < 1020 | < 1020 | < 1020
Oc1ccc(C(c2c[nH]c3cnc(Cl)cc23)c2c[nH]c3cnc(Cl)cc23)cc1 [4OH-Bis 5Cl 6aza, 4-(bis(5-chloro-1H-pyrrolo[2,3-c]pyridin-3-yl)methyl)phenol] | 8 | <256 | <256 | <256 | < 1020 | < 1020 | < 1020 | < 1020 | < 1020
O=[N+]([O-])c1ccc(C(O)c2c[nH]c3ncccc23)cc1 (stereo not drawn) [Compound 4NO2-7aza-OH, (4-nitrophenyl)(1H-pyrrolo[2,3-b]pyridin-3-yl)methanol] | 32 | <256 | <256 | <256 | < 1020 | < 1020 | < 1020 | < 1020 | < 1020
OC(c1cccc(Br)c1)c1c[nH]c2cnccc12 (stereo not drawn) [Compound 3Br-6aza-OH, (3-bromophenyl)(1H-pyrrolo[2,3-c]pyridin-3-yl)methanol] | 1 | 32 | 4 | 4 | < 1020 | < 1020 | < 1020 | < 1020 | < 1020
O=[N+]([O-])c1cccc(C(O)c2c[nH]c3cnc(Cl)cc23)c1 (stereo not drawn) [3NO2-5Cl-6aza-OH, (5-chloro-1H-pyrrolo[2,3-c]pyridin-3-yl)(3-nitrophenyl)methanol] | <256 | <256 | <256 | <256 | < 1020 | < 1020 | < 1020 | < 1020 | < 1020
Oc1ccc(C(O)c2c[nH]c3ncc(F)cc23)cc1 (stereo not drawn) [4OH-5Fl-7aza-OH, 4-((5-fluoro-1H-pyrrolo[2,3-b]pyridin-3-yl)(hydroxy)methyl)phenol] | 16 | 256 | <256 | <256 | < 1020 | < 1020 | < 1020 | < 1020 | < 1020
O=[N+]([O-])c1ccc(C(O)c2c[nH]c3c(Cl)nc(Br)cc23)cc1 (stereo not drawn) [4NO2-5Br-7Cl-6aza-OH, (5-bromo-7-chloro-1H-pyrrolo[2,3-c]pyridin-3-yl)(4-nitrophenyl)methanol] | 16 | <256 | <256 | <256 | < 1020 | < 1020 | < 1020 | < 1020 | < 1020
O=[N+]([O-])c1cccc(C(O)c2c[nH]c3c(Cl)nccc23)c1 (stereo not drawn) [3NO2-7Cl-6aza, (7-chloro-1H-pyrrolo[2,3-c]pyridin-3-yl)(3-nitrophenyl)methanol] | 32 | <256 | <256 | <256 | < 1020 | < 1020 | < 1020 | < 1020 | < 1020
O=[N+]([O-])c1ccc(C(O)c2c[nH]c3ncc(Cl)cc23)cc1 (stereo not drawn) [4NO2-5Cl-7aza-OH, (5-chloro-1H-pyrrolo[2,3-b]pyridin-3-yl)(4-nitrophenyl)methanol] | 32 | <256 | <256 | <256 | < 1020 | < 1020 | < 1020 | < 1020 | < 1020
O=[N+]([O-])c1ccc(C(O)c2c[nH]c3cnc(Cl)cc23)cc1 (stereo not drawn) [4NO2-5Cl-6aza-OH, (5-chloro-1H-pyrrolo[2,3-c]pyridin-3-yl)(4-nitrophenyl)methanol] | <256 | 128 | <256 | <256 | < 1020 | < 1020 | < 1020 | < 1020 | < 1020
O=[N+]([O-])c1cccc(C(O)c2c[nH]c3ncc(Cl)cc23)c1 (stereo not drawn) [3NO2-5Cl-7aza-OH, (5-chloro-1H-pyrrolo[2,3-b]pyridin-3-yl)(3-nitrophenyl)methanol] | <256 | <256 | <256 | <256 | < 1020 | < 1020 | < 1020 | < 1020 | < 1020
O=Cc1cccc(C(O)c2c[nH]c3c(Cl)nccc23)c1 (stereo not drawn) [iso-7Cl-6aza-OH, 3-((7-chloro-1H-pyrrolo[2,3-c]pyridin-3-yl)(hydroxy)methyl)benzaldehyde] | 32 | <256 | <256 | <256 | < 1020 | < 1020 | < 1020 | < 1020 | < 1020
O=[N+]([O-])c1ccc(C(O)c2c[nH]c3cnccc23)cc1 (stereo not drawn) [Compound 4NO2-6aza-OH, (4-nitrophenyl)(1H-pyrrolo[2,3-c]pyridin-3-yl)methanol] | 128 | <256 | 128 | 128 | < 1020 | < 1020 | < 1020 | < 1020 | < 1020
OC(c1ccc(Br)cc1)c1c[nH]c2c(Cl)nccc12 (stereo not drawn) [4Br-7Cl-6aza-OH, (4-bromophenyl)(7-chloro-1H-pyrrolo[2,3-c]pyridin-3-yl)methanol] | 2 | <256 | <256 | <256 | < 1020 | < 1020 | < 1020 | < 1020 | < 1020
